{"source": "patent US8628683B2", "about": "(Innospec Limited, priority 2007, dated 2014)", "key": {"[1]": {"details": "solid form of the commercially available material; cited from earlier work"}, "[2]": {"assay": "Increase in mass of solid samples stored at ambient temperatures over time", "assay_type": "physicochemical", "details": "ambient storage", "source_text": "(§1) Samples of the materials were stored at ambient temperatures and the appearance of the samples and the mass thereof were noted over time."}, "[3]": {"assay": "Appearance of solid samples stored at ambient temperatures over time", "assay_type": "physicochemical", "details": "ambient storage", "source_text": "as §1"}}}
{"smiles": "O=C1CCC(=O)ON2CCN(O1)OC(=O)CCC(=O)O2.[Na].[Na].[Na]", "note": "[Na3EDDS, trisodium ethylenediamine disuccinate]", "values": [{"measurement": "hygroscopicity of the solid form", "setting": "[1]", "value": "very hygroscopic"}, {"measurement": "% increase in mass after 2 h", "setting": "[2]; 2 h", "value": 7.4, "unit": "%"}, {"measurement": "% increase in mass after 4 h", "setting": "[2]; 4 h", "value": 8.9, "unit": "%"}, {"measurement": "% increase in mass after 72 h", "setting": "[2]; 72 h", "value": 25, "unit": "%"}, {"measurement": "Appearance (2 h), printed in the column after 24 hr", "setting": "[3]; 2 h", "value": "Sticky solid"}, {"measurement": "Appearance after 48 hr", "setting": "[3]; 48 hr", "value": "Very stick"}, {"measurement": "Appearance after 72 hr", "setting": "[3]; 72 hr", "value": "Very sticky"}, {"measurement": "Initial Appearance", "setting": "[3]; initial", "value": "Free flowing"}]}
